# The source made the active and inactive calls.
# Tests used:
# Leucine aminopeptidase = molecular target: T1, Leucine aminopeptidase (Plasmodium falciparum 3D7, UniProt Q8IL11); experiment: P. falciparum M17LAP inhibitors, primary screen, biochemical, fluorogenic H-Leu-NHMec substrate, 1536-well (AID 1619); assay type: functional
# T1 sequence (Q8IL11 whole entry): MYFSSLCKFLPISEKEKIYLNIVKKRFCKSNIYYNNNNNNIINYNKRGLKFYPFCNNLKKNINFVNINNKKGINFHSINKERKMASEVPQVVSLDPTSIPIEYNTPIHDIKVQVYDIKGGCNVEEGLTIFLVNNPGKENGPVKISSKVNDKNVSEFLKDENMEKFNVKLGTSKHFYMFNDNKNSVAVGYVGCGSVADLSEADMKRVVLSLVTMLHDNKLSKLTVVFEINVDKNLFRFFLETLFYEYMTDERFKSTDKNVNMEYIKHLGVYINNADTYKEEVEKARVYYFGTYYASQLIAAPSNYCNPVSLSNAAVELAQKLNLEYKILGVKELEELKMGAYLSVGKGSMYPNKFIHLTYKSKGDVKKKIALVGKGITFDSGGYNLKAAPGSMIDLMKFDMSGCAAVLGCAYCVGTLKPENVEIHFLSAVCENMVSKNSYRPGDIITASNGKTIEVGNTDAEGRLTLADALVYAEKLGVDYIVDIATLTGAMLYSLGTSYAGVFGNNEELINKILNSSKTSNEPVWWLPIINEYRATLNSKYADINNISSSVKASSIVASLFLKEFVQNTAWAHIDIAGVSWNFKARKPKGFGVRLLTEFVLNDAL
# [1] = Luminescence Cell-Based Dose Retest to Confirm Inhibitors of Cancer Stem Cells. [Related pubchem assays (depositor defined):AID2717, AID2721]; assay type: functional; settings: Homo sapiens
# Protein skinhead-1 = molecular target: T2, Protein skinhead-1 (Caenorhabditis elegans, UniProt P34707); assay type: functional
# T2 sequence (P34707 whole entry): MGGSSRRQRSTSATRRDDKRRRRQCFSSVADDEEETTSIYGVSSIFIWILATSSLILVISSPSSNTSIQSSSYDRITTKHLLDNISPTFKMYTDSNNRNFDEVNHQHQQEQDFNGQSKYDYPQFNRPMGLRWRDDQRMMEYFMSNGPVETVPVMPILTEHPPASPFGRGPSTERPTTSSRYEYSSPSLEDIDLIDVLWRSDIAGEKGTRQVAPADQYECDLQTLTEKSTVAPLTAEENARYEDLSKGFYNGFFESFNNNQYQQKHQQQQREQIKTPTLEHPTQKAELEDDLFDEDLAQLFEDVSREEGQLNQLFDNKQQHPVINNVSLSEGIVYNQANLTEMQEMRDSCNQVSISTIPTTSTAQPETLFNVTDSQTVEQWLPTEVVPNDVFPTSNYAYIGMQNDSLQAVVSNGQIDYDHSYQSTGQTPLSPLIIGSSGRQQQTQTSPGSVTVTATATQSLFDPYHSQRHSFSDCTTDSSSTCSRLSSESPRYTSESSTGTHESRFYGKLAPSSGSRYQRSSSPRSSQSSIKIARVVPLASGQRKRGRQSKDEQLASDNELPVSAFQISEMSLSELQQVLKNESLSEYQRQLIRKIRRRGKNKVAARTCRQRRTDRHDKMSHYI
# [2] = Luminescence Cell-Based Dose Response HTS to Identify Inhibitors of 5'UTR Stem-Loop Driven Prion Protein mRNA Translation in H4 Neuroglioblastoma Cells. [Related pubchem assays: 1827 (Project Summary), 1813 (Primary HTS)]; assay type: functional
# [3] = luciferase reporter signal suppression in cells – H4 neuroglioma cells, luminescence, dose response (AID 1990); assay type: functional, cell-based
# [4] = alpha-synuclein stem-loop luciferase translation blockers – H4 neuroglioma cells, luminescence, confirmation (AID 1988); assay type: functional, cell-based
# [5] = molecular target: T3, RNA-binding protein pos-1 (Caenorhabditis elegans, UniProt G5EF15); experiment: disruptors of C. elegans POS-1 RNA interaction – biochemical, fluorescence polarization, dose response (AID 1964);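 note: purified POS-1 fused to maltose binding protein made in E. coli; potency of compounds blocking POS-1 binding to fluorescent RNA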
# T3 sequence (G5EF15 whole entry): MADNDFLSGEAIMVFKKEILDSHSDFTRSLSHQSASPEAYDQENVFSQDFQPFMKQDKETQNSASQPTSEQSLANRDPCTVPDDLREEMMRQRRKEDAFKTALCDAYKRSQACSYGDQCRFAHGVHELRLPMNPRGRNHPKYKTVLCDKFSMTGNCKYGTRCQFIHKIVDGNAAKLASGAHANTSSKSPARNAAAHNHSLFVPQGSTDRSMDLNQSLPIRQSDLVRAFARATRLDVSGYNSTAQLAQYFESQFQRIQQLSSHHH
# [6] = molecular target: T4, Zinc finger protein mex-5 (Caenorhabditis elegans, UniProt Q9XUB2); experiment: potency of MEX-5 RNA-binding blockers – biochemical, C. elegans, fluorescence polarization, dose response (AID 1960)
# T4 sequence (Q9XUB2 whole entry): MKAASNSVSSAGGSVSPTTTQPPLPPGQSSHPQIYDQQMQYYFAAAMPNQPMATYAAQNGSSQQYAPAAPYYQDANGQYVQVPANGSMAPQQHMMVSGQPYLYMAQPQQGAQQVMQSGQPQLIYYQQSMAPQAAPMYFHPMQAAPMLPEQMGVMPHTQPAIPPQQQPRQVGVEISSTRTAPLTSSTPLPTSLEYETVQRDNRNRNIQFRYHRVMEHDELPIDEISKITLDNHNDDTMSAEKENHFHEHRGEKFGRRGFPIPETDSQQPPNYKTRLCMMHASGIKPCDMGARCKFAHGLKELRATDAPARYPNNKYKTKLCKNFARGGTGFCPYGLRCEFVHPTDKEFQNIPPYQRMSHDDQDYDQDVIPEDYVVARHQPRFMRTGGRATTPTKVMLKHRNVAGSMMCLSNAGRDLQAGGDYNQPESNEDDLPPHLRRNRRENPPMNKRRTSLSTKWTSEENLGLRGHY
# [7] = microbe, parasite or virus in culture; assay type: functional; settings: Mycobacterium tuberculosis
# [8] = viability of uninfected HEp-2 cells – cell-based, HTS, cytotoxicity control for RSV inhibitor project, dose response (AID 2410); assay type: functional; settings: human respiratory syncytial virus
# Cytochrome P450 1A2 = molecular target: T5, Cytochrome P450 1A2 (Homo sapiens, UniProt P05177);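 note: PubChem cytochrome P450 panel assay, CYP1A2 panel member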
# T5 sequence (P05177 whole entry): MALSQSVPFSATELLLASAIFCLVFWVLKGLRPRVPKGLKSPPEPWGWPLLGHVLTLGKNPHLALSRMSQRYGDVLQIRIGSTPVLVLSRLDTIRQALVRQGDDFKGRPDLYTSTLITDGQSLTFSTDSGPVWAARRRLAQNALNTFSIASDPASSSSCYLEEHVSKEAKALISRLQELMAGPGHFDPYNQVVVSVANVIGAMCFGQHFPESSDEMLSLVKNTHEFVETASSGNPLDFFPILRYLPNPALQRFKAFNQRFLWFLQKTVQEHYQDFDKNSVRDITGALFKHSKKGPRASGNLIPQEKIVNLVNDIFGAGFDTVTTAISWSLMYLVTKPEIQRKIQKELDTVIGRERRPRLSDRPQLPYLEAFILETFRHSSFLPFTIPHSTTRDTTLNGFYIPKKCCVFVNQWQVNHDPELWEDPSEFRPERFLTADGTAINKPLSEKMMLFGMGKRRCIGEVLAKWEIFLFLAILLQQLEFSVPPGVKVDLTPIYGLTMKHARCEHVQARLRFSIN
# Cytochrome P450 2D6 = Cytochrome P450 2D6 (Homo sapiens, UniProt P10635);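 note: CYP2D6 member of a cytochrome P450 panel assay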
# Cytochrome P450 2D6, sequence (P10635 whole entry): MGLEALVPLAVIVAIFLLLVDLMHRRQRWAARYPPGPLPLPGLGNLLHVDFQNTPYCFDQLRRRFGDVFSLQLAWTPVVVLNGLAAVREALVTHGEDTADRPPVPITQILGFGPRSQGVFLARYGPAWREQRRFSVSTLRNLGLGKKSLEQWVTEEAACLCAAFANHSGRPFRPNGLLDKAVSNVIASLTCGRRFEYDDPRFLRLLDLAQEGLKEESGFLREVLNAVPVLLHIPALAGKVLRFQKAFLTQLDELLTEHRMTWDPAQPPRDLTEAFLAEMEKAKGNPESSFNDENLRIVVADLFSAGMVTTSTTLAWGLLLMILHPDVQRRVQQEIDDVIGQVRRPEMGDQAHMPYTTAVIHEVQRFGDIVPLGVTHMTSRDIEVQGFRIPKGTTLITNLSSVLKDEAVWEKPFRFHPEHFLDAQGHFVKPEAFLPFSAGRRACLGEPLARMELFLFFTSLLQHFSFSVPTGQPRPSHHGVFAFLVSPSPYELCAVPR
# Cytochrome P450 3A4 = Cytochrome P450 3A4 (Homo sapiens, UniProt P08684);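 note: CYP3A4 tested as one member of a cytochrome P450 panel screen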
# Cytochrome P450 3A4, sequence (P08684 whole entry): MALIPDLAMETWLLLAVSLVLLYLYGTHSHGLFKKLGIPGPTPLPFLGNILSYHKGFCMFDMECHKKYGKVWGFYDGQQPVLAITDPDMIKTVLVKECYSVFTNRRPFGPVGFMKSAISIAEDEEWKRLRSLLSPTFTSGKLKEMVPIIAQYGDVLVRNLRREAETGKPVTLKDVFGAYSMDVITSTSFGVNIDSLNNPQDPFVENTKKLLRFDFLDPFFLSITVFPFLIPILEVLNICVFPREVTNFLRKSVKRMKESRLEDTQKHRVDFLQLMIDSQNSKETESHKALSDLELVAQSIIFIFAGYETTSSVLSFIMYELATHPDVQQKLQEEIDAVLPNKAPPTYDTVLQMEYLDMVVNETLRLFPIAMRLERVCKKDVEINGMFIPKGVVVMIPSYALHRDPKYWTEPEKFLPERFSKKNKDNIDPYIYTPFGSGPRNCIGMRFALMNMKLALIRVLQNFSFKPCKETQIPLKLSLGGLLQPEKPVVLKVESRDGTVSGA
# INS1 = experiment: INS-1E survival protection against cytokine death – cell-based, luminescence, retest, dose response (AID 449756); assay type: functional; settings: Rattus norvegicus;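 note: cell death triggered by IL-1 beta plus TNF-alpha plus IFN-gamma mixture; protective hits raise ATP signal compared with cytokine alone wells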
smiles,measurement,setting,value
CC1=NNC(=O)C1CCC(=O)N/N=C/C(Br)=C/c1ccccc1 (centres undefined),IC50,Leucine aminopeptidase,8 µM (active)
C=CCn1c(CNC(=O)c2ccco2)nnc1SCC(=O)Nc1cccc(Br)c1,IC50,Leucine aminopeptidase,90.1 µM (active)
Cc1cc(C)c(NC(=O)CN2C(=O)NC3(CCCCC3)C2=O)c(Cl)c1,IC50,Leucine aminopeptidase,29.3 µM (active)
Cc1cccc(NC(=O)c2ccc(COc3ccc(Cl)cc3Cl)o2)n1,AC50,[1],1.18 µM (active)
CC1=C(C(=O)OCC2CCCO2)C(c2ccccc2OC(C)C)C2=C(O)CC(c3ccco3)CC2=N1 (centres undefined),IC50,Protein skinhead-1,> 100 µM (inactive)
Cc1cc(C(=O)Nc2ccc(CC(=O)O)cc2)c(C)o1,EC50,[2],23.1 µM (active)
same,EC50,[3],12.9 µM (active)
same,EC50,[4],18.1 µM (active)
Cc1cc(C(=O)O)ccc1-n1c(C)cc(/C=C2\SC(=O)NC2=O)c1C,EC50,[5],> 300 µM (not active)
same,EC50,[6],> 300 µM (not active)
O=C(/C=C/c1ccc(OCCCF)cc1)Nc1ccnc(-c2cccnc2)n1,EC50,[5],22.8 µM (active)
same,EC50,[6],20.6 µM (active)
COc1ccc(-c2c[nH]nc2-c2ccc(OCC(=O)NN)cc2O)cc1OC,EC50,[5],> 300 µM (not active)
same,EC50,[6],2.07 µM (active)
O=C(C=Cc1cccs1)c1ccc(Cl)s1,IC50,Protein skinhead-1,19.7 µM (active)
COc1ccc(CCNC(=O)COc2nsnc2N2CCOCC2)cc1OC,IC50,Protein skinhead-1,> 100 µM (inactive)
CC(C)CCNC(=O)c1ccc2c(SCC(=O)O)c3c(nc2c1)CCCC3,IC50,Leucine aminopeptidase,39.2 µM (active)
Cc1ccccc1N/N=C/c1c(C)nc2ccccn12,CC50,[7],> 40 µM (active)
same,CC50,[8],33.2 µM (active)
COc1ccc2c(c1)c(C(O)CN1CCN(Cc3ccc4c(c3)OCO4)CC1)c(C)n2C (centres undefined),IC50,Protein skinhead-1,> 100 µM (inactive)
Cc1ccc(-c2nc(-c3ccncc3)no2)c(C)c1,IC50,Protein skinhead-1,40.9 µM (active)
COCC(C)n1c(SCc2cc(=O)n3cc(C)ccc3n2)nc2ccccc2c1=O (centres undefined),EC50,[2],12.6 µM (active)
same,EC50,[3],> 120 µM (not active)
same,CC50,[8],49.5 µM (active)
same,EC50,[4],> 120 µM (not active)
CCCC(=O)Nc1ccc(C(=O)/C=C/c2ccc(SC)cc2)cc1,AC50,Cytochrome P450 1A2,12.6 µM (inconclusive)
same,AC50,Cytochrome P450 2D6,7.94 µM (inconclusive)
same,CC50,[7],> 40 µM (active)
same,AC50,Cytochrome P450 3A4,3.16 µM (inconclusive)
COc1ccc(N/C(=C(/C(Cl)=C(Cl)Cl)[N+](=O)[O-])n2nnc3ccccc32)cc1,EC50,[5],88.5 µM (active)
same,EC50,[6],49.1 µM (inconclusive)
CCCCn1c2c(c(=O)n(C)c1=O)C(c1ccc(OC)cc1)N1CCCCCC1=N2 (centres undefined),EC50,[2],> 120 µM (not active)
same,EC50,[3],39.2 µM (active)
same,EC50,[4],> 120 µM (not active)
O=C(Nc1nn[nH]n1)c1cccc([N+](=O)[O-])c1,EC50,[2],> 120 µM (not active)
same,EC50,[3],> 120 µM (not active)
same,EC50,[4],> 120 µM (not active)
CCn1cc([N+](=O)[O-])c(C(=O)Nc2nc(-c3ccc(C)cc3)c(C)s2)n1,AC50,[1],4.24 µM (active)
CCCCCCCCOc1ccc(C2OC34CCCCC3C(C#N)(C#N)C2(C#N)C(=N)O4)cc1 (centres undefined),EC50,[5],13 µM (active)
same,EC50,[6],11.8 µM (active)
CCn1c(C)c(C)c2cc(C(=O)N3CCc4ccccc4C3)ccc21,IC50,Protein skinhead-1,> 100 µM (inactive)
same,AC50,INS1,4.05 µM (active)
O=C1NC(=O)N(CC2CCCO2)C(=O)/C1=C/c1c[nH]c2ccccc12 (centres undefined),EC50,[5],> 300 µM (not active)
same,EC50,[6],> 300 µM (not active)
CCOCCCNC(=O)C(c1ccc(Cl)cc1)N1CCC2(CC1)OCCO2 (centres undefined),IC50,Protein skinhead-1,> 100 µM (inactive)
COc1ccc(NCc2n[nH]nc2-c2ccccc2)cc1Cl,CC50,[7],> 40 µM (active)
CCn1cc(C=C2C(=O)NC(=O)NC2=O)c2ccccc21,EC50,[5],28.7 µM (inconclusive)
same,EC50,[6],> 300 µM (inconclusive)
COc1ccc(/C=C/C(=O)Nc2ccc(-n3nncc3-c3ccc(OC)c(OC)c3)cc2)cc1OC,EC50,[2],> 120 µM (not active)
same,EC50,[3],23.4 µM (active)
same,EC50,[4],16.5 µM (active)
O=C(CSc1nnc[nH]1)Nc1cccc2ccccc12,IC50,Leucine aminopeptidase,29.2 µM (active)
CCCc1cc(O)nc(SCC(=O)N(C)CC(=O)Nc2ccc(C)cc2)n1,IC50,Leucine aminopeptidase,9.77 µM (active)
CCOCCCn1/c(=N/C(C)=O)c(C#N)cc2c(=O)n3ccccc3nc21,EC50,[5],> 300 µM (not active)
same,EC50,[6],> 300 µM (not active)
Cc1cc(C)cc(NC(=O)CSc2ncc(S(=O)(=O)c3ccccc3)c(=O)[nH]2)c1,IC50,Leucine aminopeptidase,11.9 µM (active)
CCCC(=O)c1c(NC(C)C)cc(C)oc1=O,EC50,[2],> 120 µM (not active)
same,EC50,[3],> 120 µM (not active)
same,EC50,[4],> 120 µM (not active)
Cc1cc(=O)n2c(c1C#N)SC1CCCCC12O (centres undefined),EC50,[2],> 120 µM (not active)
same,EC50,[3],> 120 µM (not active)
same,EC50,[4],> 120 µM (not active)
c1ccc(-c2csc(-c3ccncc3)n2)cc1,IC50,Protein skinhead-1,4.05 µM (active)
CN1CCN(c2ccc(NC(=O)COc3ccc(Cl)cc3Cl)cc2)CC1,AC50,[1],2.6 µM (active)
CCCSc1nnc(N2C(=O)C(O)=C(C(=O)c3ccco3)C2c2ccccc2F)s1 (centres undefined),EC50,[5],> 300 µM (inconclusive)
same,EC50,[6],> 300 µM (not active)
Cc1ccc2c(c1)cc1c(=O)n(CC(=O)NCc3ccccn3)nc(C)n12,EC50,[2],> 120 µM (not active)
same,EC50,[3],> 120 µM (not active)
same,EC50,[4],> 120 µM (not active)

# Reference: ChEMBL document CHEMBL1201862, “PubChem BioAssay data set” (2004)
